Measured values taken from PMC7371863, “Intracellular interplay between cholecystokinin and leptin signalling for satiety control in rats” (Scientific Reports, 2020).
Where two headings read alike, the source gives them in different places.

Key:
pSTAT3 in C6-ObRb cells = assay: Immunofluorescent staining of pSTAT3 in C6-ObRb cells; format: cell-based, rat C6 cells, mouse ObRb
Experimental: Rat C6 glioma cells were cultured in Dulbecco’s Modified Eagle Medium/F12 (DMEM/F12) supplemented with 10% FBS, sodium bicarbonate (1.2 g/L), and 1% penicillin/streptomycin antibiotics at 37 °C in 5% CO2. The full-length mouse leptin receptor (ObRb) in pcDNA3.1 vector was kindly provided by Dr. Christian Bjørbaek (BIDMC, Harvard Medical School, Boston, MA, USA) and transfected using Lipofectamine 2000. Subsequently, the cells were cultured in medium containing 500 μg/mL G418 for cell selection.
[…] Cells were treatment with AG490 (1 μM) or LY294002 (50 μM) 15 min prior to the leptin stimulation until the time of fixation. These cells were fixed in 4% phosphate-buffered paraformaldehyde for 15 min and washed three times with PBS(−). The fixed samples were then incubated for 2 h at room temperature in 10% donkey serum dissolved in 0.1% Triton-X PBS(−). Next, samples were incubated with 1:100 affinity-purified rabbit phospho-STAT3 (pTyr^705) dissolved in 5% donkey serum PBS(−) for 24 h at 4 °C. After three 20-min PBS(−) rinses, samples were incubated in 1:400 Cy3-conjugated donkey anti-rabbit IgG for 2 h at room temperature. Finally, samples were rinsed with PBS(−) (four 15-min rinses on an orbital shaker) and mounted using Vectashield containing 4′,6-diamidino-2-phenylindole (DAPI).
(§1) Images were acquired using a confocal laser-scanning microscope (Olympus FV1000 or Nikon A1R MP plus) with a laser diode (405 nm), argon laser (488 nm), and helium neon laser ([…]). The nuclear immunofluorescent intensity (8-bit depth) was analyzed using Photoshop CS 6 software.

VMN cells = assay: Ca2+ imaging in rat VMN slices; format: cell-based; conditions: for cells responding exclusively to leptin or CCK-8s, VMN (discussion): approximately, population analysis; for Rmax, Ca2+ concentration response / EC50: four-parameter Hill function; for EC50: read-out: EC50, Ca2+ concentration response
[1] = system: nuclear pSTAT3 in the rat VMN; assay: Nuclear pSTAT3-ir in VMN after i.c.v. injection; format: in vivo
Experimental: A guide cannula (cut length 5 mm, no. C315G; Plastics One Inc.) was stereotaxically implanted to the right lateral ventricle of each rat, with the coordinates of 0.8 mm posterior to the bregma, 1.4 mm lateral to the midline, and 3.3 mm ventral from the skull surface. The canula was secured on the skull surface with two stainless steel screws and dental acrylic resin. The rats were then allowed to recover in their home cage for at least 1 week. Leptin (4 µg) and CCK (2 µg) were dissolved in 4 µl ACSF and administered through an internal cannula (cut length 5.5 mm, no. C315I; Plastics One Inc. C315I). To minimize the effect of endogenous signals, the rats were deprived of food for 10 h (08:00–18:00) before i.c.v. administration. Drugs were infused at a flow rate of 1 µl/min over 4 min using a motorized syringe pump (Carnegie Medicine model CMA/102), followed by another 4 min of rest for diffusion. One hour after i.c.v. administration, the rat brain was removed for immunohistochemical analysis.
For immunohistochemical analysis of rat hypothalamic slices, animals were deeply anesthetized with an i.p. injection of sodium pentobarbital (50 mg/kg) and transcardially perfused with PBS(−) for 5 min followed by ice-cold 4% (w/v) paraformaldehyde in PBS(−) for 15 min. The brain was removed and further fixed in the same fixative (4 °C, overnight). Then, the olfactory bulbs and/or cerebellum were removed from the brain in ice-cold PBS(−). Pre-trimmed brain tissues were immersed in 30% (w/v) sucrose and stored overnight at 4 °C. The fixed and cryoprotected brain tissues were embedded with OCT compound. Frozen sections of 30 µm thickness were cut using a cryostat microtome and washed three times with PBS(−) in 24-well plates, after which they were mounted on glass slides. […]
as §1

VMN neurons = assay: Whole cell patch clamp, action potential firing in VMN neurons; format: cell-based, rat; conditions: for action potential firing frequency: n.s.
Experimental: The VMH slices (300-μm thickness) were prepared following deep pentobarbital anaesthesia administration to postnatal day (PD) 12–16 rats using a vibrating blade microtome in ice-cold high-Mg^2+ artificial cerebrospinal fluid (ACSF) containing 138.6 mM NaCl, 3.35 mM KCl, 21 mM NaHCO3, 0.6 mM NaH2PO4, 9.9 mM D-glucose, 0.5 mM CaCl2, and 4 mM MgCl2 bubbled with 95% O2/5% CO2. The slices were incubated at room temperature for 1 h in regular ACSF containing 2.5 mM CaCl2, and 1.0 mM MgCl2 bubbled with 95% O2/5% CO2. Subsequently, the slices were transferred to an upright microscope stage (Olympus BX50WI). The recording chamber was perfused with oxygenated normal ACSF at 3 ml/min at 34 °C. VMN neurons were visualized through an infrared CCD camera (Hamamatsu Photonics C2741-79). Neurons were recorded in the whole-cell current-clamp mode using a patch-clamp amplifier (Axon Instruments Axopatch 200B). The recordings were performed using patch pipettes with an access resistance of 4–6 MΩ and internal solution containing 135 mM potassium gluconate, 5 mM KCl, 10 mM HEPES, 0.1 mM CaCl2, 1.0 mM EGTA, 10 mM phosphocreatine, 2 mM Mg-ATP, and 0.2 mM Na-GTP (pH adjusted to 7.3 with KOH). The output of the amplifier was digitised using an A/D converter board (Axon Instruments Digidata 1200) with a sampling rate of 10 kHz and recorded on a hard disk by data acquisition software (Axon Instruments pCLAMP 8). Membrane potentials were low-pass-filtered at 2 kHz. Resting membrane potentials less than − 60 mV were set to approximately − 60 mV by current injections. Stimulants were applied by the gravity drop perfusion system. Further details of electrophysiological recordings were described previously.

ARC cells = format: cell-based, rat; conditions: leptin 500 nM; 12 slices; 0.5 µM tetrodotoxin; 34 °C; mean with standard error
[2] = system: hypothalamic astrocyte cultures; conditions: cited from earlier work
Excerpt: A product of the obese gene, leptin, is a peptide hormone secreted from white adipocyte tissue, also known as a satiety-controller[31]–[33]. […] Splice variants (ObRa–ObRe) have been identified for leptin receptors and only the full-length isoform (ObRb) contains the intracellular motifs required for the initiation of intracellular signalling. ObRb is a single-transmembrane receptor that interacts with diverse signalling molecules[ ...

[3] = leptin with co-stimulation of 1 nM CCK-8s

For CCK-8s [reference compound], the “cytosolic pSTAT3-ir” value (pSTAT3 in C6-ObRb cells; CCK-8s 50 nM) was “induced cytosolic pSTAT3-ir”, the “nuclear pSTAT3-ir on co-stimulation versus leptin alone” value (pSTAT3 in C6-ObRb cells; CCK-8s 50 nM with leptin 100 nM, 30 images/three dishes, p < 0.01) was “significantly smaller than that by leptin stimulation alone” and the “nuclear intensity of pSTAT3-ir versus unstimulated controls” value (pSTAT3 in C6-ObRb cells; CCK-8s 50 nM, 30 images/three dishes, p < 0.01) was “significantly smaller in the CCK-8s-treated group than in unstimulated controls”. For the same substance, the “Ca2+ transients in slice preparation” value (VMN cells; CCK-8s 1 nM alone, n = 216 in 18 slices) was “failed to evoke Ca^2+ transients”, the “effect of co-stimulation on leptin-induced Ca2+ responses” value (VMN cells; CCK-8s 1 nM with leptin 1–1,000 nM, p < 0.01 two-way ANOVA) was “amplified leptin-induced Ca^2+ responses” and the “cells that exclusively responded to CCK-8s, VMN” value (VMN cells; CCK-8s 10 nM versus leptin 500 nM, 11 slices, mean with standard error) was 5.2 ± 1.1%. For the same substance, the “leptin responders also responding to CCK-8s, VMN” value (VMN cells; CCK-8s 10 nM, leptin 500 nM, 11 slices, mean with standard error) was 81.3 ± 9.1%, the “cells responding exclusively to leptin or CCK-8s, VMN (discussion)” value (VMN cells; leptin 500 nM and CCK-8s 10 nM) was 5–12% and the “cells showing leptin-induced Ca2+ increase that also responded to CCK-8s (discussion)” value (VMN cells; leptin 500 nM and CCK-8s 10 nM) was “more than 80%”. The “nuclear pSTAT3 levels in VMN versus single leptin injection” value ([1]; CCK-8s 2 µg co-injected with leptin 4 µg i.c.v.) was “reduced nuclear pSTAT3 levels in the rat VMN compared with single leptin injections” and the “action potential firing frequency” value (VMN neurons; CCK-8s 1 nM, n = 9, spontaneous 1.45 ± 0.07 Hz, − 60 mV, 34 °C) was 1.28 ± 0.15 Hz.
In the case of “leptin: peptide hormone secreted from white adipocyte tissue, product of the obese gene; PeproTech Cat#450-31”, the “cells with monophasic Ca2+ increase, ARC” value (ARC cells) is given as 25.9% ± 4.5, the “cytosolic Ca2+ after leptin stimulation” value [2] is given as “monophasic cytosolic Ca^2+ elevation” and the “nuclear pSTAT3-ir” value (pSTAT3 in C6-ObRb cells; leptin 100 nM, 30 images/three dishes, p < 0.01 one-way ANOVA) is given as “significantly increased pSTAT3-ir in the nuclei”. For the same substance, the “cells responding exclusively to leptin or CCK-8s, VMN (discussion)” value (VMN cells; leptin 500 nM and CCK-8s 10 nM) was 5–12%, the “cells that exclusively responded to leptin, VMN” value (VMN cells; leptin 500 nM versus CCK-8s 10 nM, 11 slices, mean with standard error) was 12.2 ± 1.5% and the “cells with monophasic Ca2+ increase, VMN” value (VMN cells; leptin 500 nM, 11 slices, 0.5 µM tetrodotoxin, 34 °C, mean with standard error) was 65.4 ± 7.5%. The “Rmax, Ca2+ concentration response” value (VMN cells; leptin alone) was 0.2, the EC50 (VMN cells; leptin alone) was 153 nM and the “Rmax, Ca2+ concentration response” value (VMN cells; leptin with 1 µM LGM) was 0.14. For the same substance, the EC50 (VMN cells; leptin with 1 µM LGM) was 163 nM, the “Rmax, Ca2+ concentration response” value (VMN cells; [3]) was 0.26 and the EC50 (VMN cells; [3]) was 42.8 nM. The “number of nuclear pSTAT3-ir in VMN relative to vehicle-injected control” value ([1]; leptin 4 µg i.c.v., 1 h, 10 h food-deprived, p < 0.01) was “three times”, the “number of nuclear pSTAT3-ir in VMN, co-administration, versus vehicle” value ([1]; leptin 4 µg with CCK-8s 2 µg i.c.v., 1 h, n.s.) was “failed to increase the number of nuclear pSTAT3-ir” and the “neurons with apparent (> twofold) increase in firing frequency, co-stimulation” value (VMN neurons; leptin 30 nM with CCK-8s 1 nM) was “Five neurons in nine recordings”. The “action potential firing frequency, co-stimulation” value (VMN neurons; leptin 30 nM with CCK-8s 1 nM, n = 9, p < 0.01, spontaneous 1.45 ± 0.07 Hz, − 60 mV, 34 °C) was 3.49 ± 0.68 Hz, the “highest action potential firing frequency, co-stimulation” value (VMN neurons; leptin 30 nM with CCK-8s 1 nM, single neuron maximum) was 5.5 Hz and the “action potential firing frequency” value (VMN neurons; leptin 30 nM, n = 9, spontaneous 1.45 ± 0.07 Hz, − 60 mV, 34 °C) was 1.55 ± 0.13 Hz.
